Test results: patent US20020081596A1, “Compositions and methods for the identification, assessment, prevention, and therapy of human cancers” (priority 2000, published 2002)

Tests used:
[1] = system: NCl-H460; settings: NCl-H460, non-small cell lung carcinoma, TAXOL sensitive cell line; cited from earlier work
[2] = system: MCF-7; settings: MCF-7, breast, TAXOL sensitive cell line; cited from earlier work
[3] = system: MCF-7/AdrRes; settings: breast, TAXOL resistant cell line; cited from earlier work
[4] = system: SK-MEL-2; settings: SK-MEL-2, melanoma, TAXOL sensitive cell line; cited from earlier work
[5] = system: ACHN; settings: renal, TAXOL resistant cell line; cited from earlier work
[6] = system: MALME-3M; settings: melanoma, TAXOL resistant cell line; cited from earlier work
[7] = system: SK-MEL-28; settings: SK-MEL-28, melanoma, TAXOL resistant cell line; cited from earlier work
[8] = system: HT-29; settings: HT-29, colon, TAXOL sensitive cell line; cited from earlier work
[9] = system: SK-MEL-5; settings: SK-MEL-5, melanoma, TAXOL sensitive cell line; cited from earlier work
[10] = system: MDA-MB-435; settings: MDA-MB-435, breast, TAXOL sensitive cell line; cited from earlier work
[11] = system: OVCAR-4; settings: OVCAR-4, ovarian, TAXOL resistant cell line; cited from earlier work
[12] = system: NCl-H522; settings: NCl-H522, non-small cell lung carcinoma, TAXOL sensitive cell line; cited from earlier work
[13] = system: TAXOL sensitive cancer cell lines; experiment: Growth inhibition (GI50) by TAXOL, mean of nine sensitive cell lines; assay type: cell-based, human; settings: mean of the nine TAXOL sensitive cell lines of Table C
Protocol: (§1) One group of nine cell lines was determined to be sensitive to TAXOL (Table C), the other group of nine cell lines was determined to be resistant to TAXOL (Table B). Sensitivity to TAXOL was based of known GI50 values for these cells, which for this study was defined as the concentration of TAXOL required to inhibit growth of the cell line by 50%. More precisely, the quantity used in the calculation is the potency measure −log{GI50}. Pooled RNA from TAXOL sensitive cancer cell lines was used as tester against driver RNA pooled from TAXOL resistant cancer cell lines. Pooled RNA from TAXOL resistant cancer cell lines was used as tester against driver RNA pooled from TAXOL sensitive cancer cell lines.

[14] = system: HCT-15; settings: HCT-15, colon, TAXOL resistant cell line; cited from earlier work
[15] = system: TAXOL resistant cancer cell lines; experiment: Growth inhibition (GI50) by TAXOL, mean of nine resistant cell lines; assay type: cell-based, human; settings: mean of the nine TAXOL resistant cell lines of Table B
Protocol: as §1

[16] = system: HOP-92; settings: HOP-92, non-small cell lung carcinoma, TAXOL resistant cell line; cited from earlier work
[17] = system: T-47D; settings: breast, TAXOL resistant cell line; cited from earlier work
[18] = system: EKVX; settings: non-small cell lung carcinoma, TAXOL resistant cell line; cited from earlier work
[19] = system: OVCAR-3; settings: OVCAR-3, ovarian, TAXOL sensitive cell line; cited from earlier work
[20] = system: SN12C; settings: renal, TAXOL sensitive cell line; cited from earlier work
[21] = system: tumor; settings: animal models; cited from earlier work

## CC(=O)O[C@H]1C(=O)[C@@]2(C)[C@H]([C@H](OC(=O)c3ccccc3)[C@]3(O)C[C@H](OC(=O)[C@H](O)[C@@H](NC(=O)c4ccccc4)c4ccccc4)C(C)=C1C3(C)C)[C@]1(OC(C)=O)CO[C@@H]1C[C@@H]2O [TAXOL]
[1]
  Log GI 50 for TAXOL: −8.5
[2]
  Log GI 50 for TAXOL: −8.5
[3]
  Log Gl 50 for TAXOL: −5.5
[4]
  Log GI 50 for TAXOL: −8.3
[5]
  Log Gl 50 for TAXOL: −5.8
[6]
  Log Gl 50 for TAXOL: −6.8
[7]
  Log Gl 50 for TAXOL: −7.1
[8]
  Log GI 50 for TAXOL: −8.6
[9]
  Log GI 50 for TAXOL: −8.4
[10]
  Log GI 50 for TAXOL: −8.6
[11]
  Log Gl 50 for TAXOL: −6.3
[12]
  Log GI 50 for TAXOL: −8.5
[13]
  Log GI 50 for TAXOL (Mean): −8.5
[14]
  Log Gl 50 for TAXOL: −6.7
[15]
  Log Gl 50 for TAXOL (Mean): −6.5
[16]
  Log Gl 50 for TAXOL: −7.2
[17]
  Log Gl 50 for TAXOL: −6.9
[18]
  Log Gl 50 for TAXOL: −6.6
[19]
  Log GI 50 for TAXOL: −8.5
[20]
  Log GI 50 for TAXOL: −8.5

## CC(=O)O[C@@]12CO[C@@H]1C[C@H](O)[C@@]1(C)C(=O)[C@H](O)C3=C(C)[C@@H](OC(=O)[C@H](O)[C@@H](NC(=O)OC(C)(C)C)c4ccccc4)C[C@@](O)([C@@H](OC(=O)c4ccccc4)[C@H]21)C3(C)C [Taxotere, docetaxel]
[21]
  anti-tumor activity: good anti-tumor activity
